Results reported in the PolyMetriX glass transition set.
± gives the standard deviation of the reports.

glass transition temperature [°C]	Structure (SMILES)
270.00	*C(=O)Nc1ccc(Cc2ccc(NC(=O)c3ccc4c(c3)C(=O)N(c3ccc(Oc5ccc(N6C(=O)c7ccc(*)cc7C6=O)cc5)cc3)C4=O)cc2)cc1 (repeat unit)
92.00	*Nc1ccc(CC(C)(C)NC(=O)CCCCCCCCC(*)=O)cc1 (repeat unit)
176.00	*Oc1ccc(C(c2ccc(OC(*)=O)cc2)(C(F)(F)F)C(F)(F)F)cc1 (repeat unit)
240.00	*Oc1ccc(C(=O)Nc2ccc(Cc3ccc(NC(=O)c4ccc(Oc5ccc(C(=O)c6ccc(S(=O)(=O)c7ccc(C(=O)c8ccc(*)cc8)cc7)cc6)cc5)cc4)cc3)cc2)cc1 (repeat unit)
90.00	*CC(C)(C)CS(=O)(=O)CC(C)(C)COC(=O)Nc1ccc(Cc2ccc(NC(=O)O*)cc2)cc1 (repeat unit)
134.00	*OS(=O)(=O)c1cc(S(=O)(=O)Oc2ccc(C3(c4ccc(*)cc4)CCCC3)cc2)ccc1C (repeat unit)
45.00	*O[Si](C)(C)Oc1ccc(C(C)(C)c2ccc(*)cc2)cc1 (repeat unit)
-47.00	*CCOCCOC(=O)C(CCCCC)C(=O)O* (repeat unit)
-73.00	*C#C/C(COS(=O)(=O)c1ccc(C)cc1)=C(/*)COS(=O)(=O)c1ccc(C)cc1 (repeat unit)
116.90	*CCOC(=O)Nc1ccc(CCc2ccc(NC(=O)O*)cc2)cc1 (repeat unit)
198.00	*c1ccc(CCc2ccccc2N2C(=O)C(=O)N(c3ccc(Cc4ccc(N5C(=O)C(=O)N(*)C5=O)cc4)cc3)C2=O)cc1 (repeat unit)
64.50	*Nc1ccc(*)cc1OCCCCCCCCCCOc1ccc(C2CCC(CCCCC)CC2)cc1 (repeat unit)
18.00	*Oc1ccc(CC(NC(=O)CCc2ccc(OC(=O)COCCOCC(*)=O)cc2)C(=O)OCCOCCOCC)cc1 (repeat unit)
117.00	*CCCCCCCN1C(=O)c2ccc(C(=O)Oc3ccc(-c4ccc(OC(=O)c5ccc6c(c5)C(=O)N(*)C6=O)cc4)cc3)cc2C1=O (repeat unit)
217.00	*c1ccc(Cc2ccc(N3C(=O)c4ccc(Oc5ccc(C(C)(C)c6ccc(Oc7ccc8c(c7)C(=O)N(*)C8=O)cc6)cc5)cc4C3=O)cc2)cc1 (repeat unit)
30.00	*Oc1ccc(CC(NC(=O)CCc2ccc(OC(=O)CCCCCCCCC(*)=O)cc2)C(=O)OCCCC)cc1 (repeat unit)
250.00	*CC(=O)Nc1ccc(NC(=O)CN2C(=O)c3ccc(C(=O)c4ccc5c(c4)C(=O)N(*)C5=O)cc3C2=O)cc1 (repeat unit)
-38.00	*CCOCCOC(=O)C(CCC)C(=O)O* (repeat unit)
91.00	*OC(=O)C(Cc1ccccc1)NC(=O)CCCCCCC(=O)NC(Cc1ccccc1)C(=O)OC1COC2C(*)COC12 (repeat unit)
40.00	*CC(*)C(=O)OCCCCOC(=O)c1ccc(OC(=O)c2ccc(C#N)cc2)cc1 (repeat unit)
-53.00	*CC(*)c1ccc(CCCCCCCCC)cc1 (repeat unit)
168.00	*Nc1cc(NC(=O)Nc2ccc(Cc3ccc(NC(*)=O)cc3)cc2)cc(C(=O)Nc2ccc3c(c2)C(=O)c2ccccc2C3=O)c1 (repeat unit)
302.00	*Oc1ccc(C(=O)Nc2ccc(Cc3ccc(NC(=O)c4ccc(Oc5nc(*)nc(Sc6ccccc6)n5)cc4)cc3)cc2)cc1 (repeat unit)
83.00	*Oc1ccc(CNC(=O)c2cccc(C(=O)NCc3ccc(OC4COC5C(*)COC45)cc3)c2)cc1 (repeat unit)

Second part, the molecule before the results:

Structure (SMILES)	glass transition temperature [°C]
*c1ccc(Oc2cccc(N3C(=O)c4ccc([Si](C)(C)O[Si](C)(C)c5ccc6c(c5)C(=O)N(c5cccc(Oc7ccc(-c8nnc(*)o8)cc7)c5)C6=O)cc4C3=O)c2)cc1 (repeat unit)	165.00
*CCC(*)(C)c1ccccc1 (repeat unit)	93.00
*CC(COCCCCCC)O* (repeat unit)	-85.50
*CCN(*)C(=O)C12CC3CC(CC(C3)C1)C2 (repeat unit)	123.00
*C(=O)c1ccc2c(c1)C(=O)N(c1cccc(C(=O)c3ccc(Oc4ccc(N5C(=O)c6ccc(*)cc6C5=O)cc4C(F)(F)F)cc3)c1)C2=O (repeat unit)	242.00
*CC(C)(CC)C(=O)O* (repeat unit)	-9.00
*C1C(=O)N(c2ccc(O[Si](c3ccccc3)(c3ccccc3)c3ccccc3)cc2)C(=O)C1* (repeat unit)	183.00
*OC(F)(F)C(F)(F)C(F)(F)C(*)(F)F (repeat unit)	-55.00
*CCCCCCOC(=O)OCCCCCCCCCCCCOC(=O)OCCCCCCn1c(=O)c2cc3c(=O)n(*)c(=O)c3cc2c1=O (repeat unit)	-9.00
*CC(*)c1cc(Br)ccc1OC(C)C (repeat unit)	35.00
*CC(*)(C)C(=O)OCC(C)(C)C1OCC(C)(C)CO1 (repeat unit)	118.00
*N=P(N=P(/N=S(/*)Oc1ccc(-c2ccccc2)cc1)(Oc1ccc(-c2ccccc2)cc1)Oc1ccc(-c2ccccc2)cc1)(Oc1ccc(-c2ccccc2)cc1)Oc1ccc(-c2ccccc2)cc1 (repeat unit)	69.00
*CCCP(=O)(CCCNC(=O)CCCCC(=O)N*)c1ccccc1 (repeat unit)	55.00
*/C=C/c1ccc(*)c(-c2cc(OCCC(C)C)c(OCCC(C)C)cc2-c2ccccc2)c1 (repeat unit)	164.00
*CCN(*)C(=O)CCCCCCC (repeat unit)	10.00
*Oc1ccc(C(c2ccc(Oc3ccc(C(=O)c4c(C(=O)c5ccc(*)cc5)c(-c5ccccc5)c(-c5ccc6ccccc6c5)c(-c5ccc6ccccc6c5)c4-c4ccccc4)cc3)cc2)(C(F)(F)F)C(F)(F)F)cc1 (repeat unit)	275.00
*CC(*)CCCCCCCC (repeat unit)	-35.00
*c1cc(C(c2ccc(OCCN(C)c3ccc(/C=C/C4=CC(=C(/C#N)C(=O)OCc5ccc(Oc6c(F)c(F)c(F)c(F)c6F)cc5)/CC(C)(C)C4)cc3)c(N3C(=O)c4ccc(Oc5ccc6c(c5)C(=O)N(*)C6=O)cc4C3=O)c2)(C(F)(F)F)C(F)(F)F)ccc1OCCN(c1ccccc1)c1ccc(/C=C/C2=CC(=C(/C#N)C(=O)OCc3ccc(Oc4c(F)c(F)c(F)c(F)c4F)cc3)/CC(C)(C)C2)cc1 (repeat unit)	162.00
*CC(CN1C(=O)C2C3C=CC(C3)C2C1=O)O* (repeat unit)	87.50

Structure (SMILES)	glass transition temperature [°C]
*c1ccc(S(=O)(=O)c2ccc(N3C(=O)c4ccc(Oc5ccc(Oc6ccc7c(c6)C(=O)N(*)C7=O)cc5)cc4C3=O)cc2)cc1 (repeat unit)	283.00
*CC(*)(C)C(=O)Oc1cc(C)cc(C)c1 (repeat unit)	106.00
*c1ccc(-c2cc(-c3ccc(OCCCC#N)cc3)cc(-c3ccc(N4C(=O)c5ccc(-c6ccc7c(c6)C(=O)N(*)C7=O)cc5C4=O)cc3)n2)cc1 (repeat unit)	360.00
*c1ccc(Oc2ccc(Oc3ccc(-n4c(=O)c5cc6c(=O)n(*)c(=O)c6cc5c4=O)cc3)cc2C)cc1 (repeat unit)	310.00
*CC/C=C(/*)C(C)(C)C (repeat unit)	20.00
*C(=O)Nc1c(CC)cc(Cc2cc(CC)c(NC(=O)c3ccc4c(c3)C(=O)N(c3ccc(/N=N/c5ccc(C)cc5)c(N5C(=O)c6ccc(*)cc6C5=O)c3)C4=O)c(CC)c2)cc1CC (repeat unit)	269.00
*/C=C/c1cc(OC)c(/C=C/c2ccc(/C=C(\Oc3ccccc3)c3ccc(/C(=C/c4ccc(*)cc4)c4ccc(Oc5ccccc5)cc4)cc3)cc2)cc1OC (repeat unit)	175.00
*CC(*)C(=O)OCCSC (repeat unit)	-60.00
*OP(=O)(Oc1ccc(Cl)cc1)Oc1ccc(C(C)(C)c2ccc(*)cc2)cc1 (repeat unit)	71.00
*c1ccc(C(C)(C)c2ccc(N3C(=O)c4ccc(Oc5ccc6c(c5)C(=O)N(*)C6=O)cc4C3=O)cc2)cc1 (repeat unit)	265.00
*C(=O)Nc1ccc(Oc2ccccc2-c2ccccc2Oc2ccc(NC(=O)c3ccc4c(c3)C(=O)N(c3ccc(Oc5ccccc5-c5ccccc5Oc5ccc(N6C(=O)c7ccc(*)cc7C6=O)cc5)cc3)C4=O)cc2)cc1 (repeat unit)	227.00
*c1ccc(Cc2ccc(N3C(=O)C(Cl)=C(Oc4ccc(C(c5ccc(OC6=C(Cl)C(=O)N(*)C6=O)cc5)(C(F)(F)F)C(F)(F)F)cc4)C3=O)cc2)cc1 (repeat unit)	189.00
*Oc1c(C)cc(*)cc1C(C)CCCC (repeat unit)	85.00
*CCCCCCN(CC(F)(F)C(F)(F)C(F)(F)C(F)(F)C(F)(F)C(F)(F)C(F)(F)F)C(=O)CCCCC(=O)N(*)CC(F)(F)C(F)(F)C(F)(F)C(F)(F)C(F)(F)C(F)(F)C(F)(F)F (repeat unit)	119.40
*CC(*)c1ccc(OCCCC)cc1 (repeat unit) [Poly(p-n-butoxy styrene) ]	47 ± 3.3
*Oc1ccc(NC(=O)Nc2cc(NC(=O)Nc3ccc(*)c(-c4ccc(Oc5ccccc5)cc4)c3)ccc2C)cc1-c1ccc(Oc2ccccc2)cc1 (repeat unit)	279.00
*C(=O)c1ccc2c(c1)C(=O)N(c1ccc(-c3c(-c4ccc(-c5ccccc5)cc4)cc(-c4ccc(OCCCCCCOc5ccc(-c6cc(-c7ccc(-c8ccccc8)cc7)c(-c7ccc(N8C(=O)c9ccc(*)cc9C8=O)cc7)c(-c7ccc(-c8ccccc8)cc7)c6)cc5)cc4)cc3-c3ccc(-c4ccccc4)cc3)cc1)C2=O (repeat unit)	111.50
*CC(*)c1ccc(CCl)cc1 (repeat unit)	113.50
*c1c(C)cc(Cc2cc(C)c(N3C(=O)c4ccc(Oc5cccc6c(Oc7ccc8c(c7)C(=O)N(*)C8=O)cccc56)cc4C3=O)c(C)c2)cc1C (repeat unit)	281.00
